Measurements from patent US20260174875A1 (Novo Nordisk A/S, priority 2023, published 2026).
Read-outs that look alike come from different tables or passages of the source.

Key:
[1] = Chemical stability assessment in formulation (UPLC-UV-MS purity loss at 37° C.); format: physicochemical; conditions: 8 mM phosphate buffer pH 7.4, 1 mg/mL, 2 weeks
Outline: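 Peptides at target 1 mg/mL in 8 mM phosphate buffer, pH adjusted to 7.4, incubated in capped vials at 37° C. and sampled over 2 weeks, frozen until analysis. Purity followed by UPLC-UV-MS with a 0.1% formic acid water/acetonitrile gradient.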

[2] = Pharmacokinetic study in minipigs (i.v.); format: in vivo, Göttingen minipigs; conditions: i.v. administration to minipigs, 2 nmol/kg
Experimental: This is done in a pharmacokinetic (PK) study, where the terminal half-life (t1/2) of the compound or derivative in question is determined. By terminal half-life is meant the time it takes to halve a certain plasma concentration in the terminal elimination phase.
Female Göttingen minipigs, obtained from Ellegaard Göttingen Minipigs (Dalmose, Denmark), approximately 8-12 months of age and weighing approximately 20-30 kg were used in the studies.
After three weeks of acclimatisation two permanent central venous catheters were implanted in vena cava caudalis in each animal. The animals were allowed at least 10 days recovery after the surgery and were then used for repeated pharmacokinetic studies with a suitable wash-out period between successive dosing.
The compounds of the invention were formulated (40 nmol/ml) in the following vehicle: 8 mM phosphate; 250 mM glycerol; 0.007% polysorbate 20, pH 7.4.
Blood samples (for example 1.3 ml) were collected in EDTA (1.3 ml tube containing K3EDTA to yield 1.6 mg K3EDTA/ml blood) coated tubes and then centrifuged at 4° C. and 2000×g for 10 minutes.
Plasma was within 30 min after centrifugation pipetted into Micronic tubes stored on dry ice and were afterwards kept at −20° C. until analysed for plasma concentration of the compounds using LCMS.
Plasma concentrations of the peptides of the invention were assayed by plasma protein precipitation and analysed by liquid chromatography mass spectrometry (LC-MS). Calibrators were prepared by spiking blank plasma from minipigs with the compounds in the typical range from 0.05 to 200 nM. […] The supernatant was diluted with 1 volumes of Milli-Q water containing 1% Formic acid before injection on the LC-MS system. Individual plasma concentration-time profiles were analysed by a non-compartmental pharmacokinetic method (NCA) in Phoenix v. 6.4 (Pharsight Inc., Mountain View, CA, USA), and the resulting terminal half-lives (harmonic mean) determined. The LC-MS analysis was carried out using a TurboFlow HPLC system from Thermo Fisher Scientific (Bremen, Germany) coupled to either a Q Exactive Orbitrap or Altis Triple Quadrupole (TQ) Mass Spectrometer. […] The Orbitrap mass spectrometer were operating in positive ionization mode with a spray voltage of 4.0 kV using Parallel Reaction Monitoring scan mode using 5 m/z isolation windows on the most abundant charge state of the compounds with a resolution of 35K on the Orbitrap MS.
The data was processed using the Quan Browser in the Xcalibur software from Thermo Fisher Scientific (Bremen, Germany) by fitted the data to linear calibration curves (weighed 1/x^2), used for calculating the concentration in the plasma samples. Quality control samples were included.

[3] = target: T1, human GLP-1 receptor (hGLP-1R) (Homo sapiens, UniProt P43220); assay: GLP-1 receptor assay, method B (CRE-luciferase reporter, BHK cells, 384-well); format: cell-based; conditions: hGLP-1R Potency, 1% HSA, EC50, methods B, in the presence of 1% HSA
T1 construct: expressed in transfected cells
Experimental: (§1) To assess how the activation of the receptors is potentially influenced by the presence of human serum albumin (HSA), the in vitro assays were performed in the absence of HSA and presence of 1% (w/v) HSA.
Cells at approximately 80-90% confluence were washed once in PBS (Gibco 14190-094) and loosened from the cell flasks with Versene (Gibco, 15040-033). […] Cells were aliquoted and stored at −180° C. until use.
(§2) The assay buffer consisted of DMEM without phenol red (Gibco, 11880-028) supplemented with 1× GlutaMAX (Gibco, 35050-038), 10 mM HEPES (Gibco, 15630-056), 1% (w/v) ovalbumin (Sigma, A5503) and 0.1% (v/v) Pluronic F-68 (Gibco, 24040-032) either with HSA or without HSA (Sigma, A9511).
Serial dilutions were transferred to a 384-well assay plate (PerkinElmer/Revvity, 6007688) and mixed with an equal volume (10 μL) of assay buffer without or with 3% (w/v) HSA (Sigma, A-9511). Frozen stocks of hGLP-1R BHK Cre-Luc cells were thawed in a 37° C. water bath, washed once in PBS (Gibco 14190-094), diluted to 1.5×10^5 (1.5E+5) cells/mL in assay buffer (without HSA) and added (10 μL) to each well of the 384-well assay plate. After a short centrifugation, the assay plates were incubated for 3 hours at 37° C. in 5% CO2 and let to equilibrated at room temperature for 10 minutes before the addition of 30 μL steadylite Plus™ PerkinElmer/Revvity, 6066759) per well. Plates were sealed and incubated at room temperature with gentle shaking for 30 minutes while protected from light. Luminescence was detected on a luminescence plate reader e.g. a Synergy 2 (BioTek).

[4] = target: T2, human GIP receptor (hGIPR) (Homo sapiens, UniProt P48546); assay: GIP receptor assay, method B (CRE-luciferase reporter, BHK cells, 384-well); format: cell-based
T2 construct: expressed in transfected cells
T2 sequence (P48546 22-466): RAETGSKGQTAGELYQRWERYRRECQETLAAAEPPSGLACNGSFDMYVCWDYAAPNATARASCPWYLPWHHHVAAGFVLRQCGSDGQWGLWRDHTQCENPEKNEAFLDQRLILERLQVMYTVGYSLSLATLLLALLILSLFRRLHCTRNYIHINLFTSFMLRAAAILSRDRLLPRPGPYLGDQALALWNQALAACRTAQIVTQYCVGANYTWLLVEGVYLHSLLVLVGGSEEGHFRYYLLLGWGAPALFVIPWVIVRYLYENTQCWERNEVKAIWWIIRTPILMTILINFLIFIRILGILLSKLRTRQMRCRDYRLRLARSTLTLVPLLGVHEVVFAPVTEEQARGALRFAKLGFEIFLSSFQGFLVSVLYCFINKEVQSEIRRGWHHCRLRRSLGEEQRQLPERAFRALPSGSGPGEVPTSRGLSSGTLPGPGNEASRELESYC
Experimental: as §1
Activation of the human GIP receptor leads to increased intra-cellular concentrations of cyclic AMP (cAMP) and the consequent transcription activation from promoters containing multiple copies of the cAMP response element (CRE). It is thus possible to measure GIP receptor activity using a CRE-luciferase reporter gene introduced into Baby Hamster Kidney (BHK) cells co-expressing the human GIP receptor.
Cells at about 80-90% confluency were washed once with PBS (Gibco 14190-094) and detached from the cell flasks with Versene (Gibco, 15040-066). After centrifugation, the cells were counted, resuspended and diluted to approximately 1.5-3.0×10^6 (1.5E+6 to 3.0E+6) cells/mL in Recovery Cell Culture Freezing Medium (Gibco, 12648-010) and stored at −180° C. in suitable aliquots until use.
as §2
Serial dilutions were transferred to a 384-well assay plate (PerkinElmer/Revvity, 6007688) and mixed with an equal volume (10 μL) of assay buffer without or with 3% HSA (Sigma, A-9511). Frozen stocks of hGIPR BHK Cre-Luc cells were thawed in a 37° C. water bath, washed once in PBS (Gibco 14190-094), diluted to 1.5×10^5 (1.5E+5) cells/mL in assay buffer (without HSA) and added (10 μL) to each well of the 384-well assay plate. After a short centrifugation, the assay plates were incubated for 3 hours at 37° C. in 5% CO2 and let to equilibrated at room temperature for 10 minutes before the addition of 30 μL steadylite Plus™ (PerkinElmer/Revvity, 6066759) per well. Plates were sealed and incubated at room temperature with gentle shaking for 30 minutes while protected from light. Luminescence was detected on a luminescence plate reader e.g. a Synergy 2 (BioTek).

[5] = target: T3, human amylin receptor (hAMYR3) (Homo sapiens, UniProt O60896+P30988); assay: Amylin receptor assay, method B (CRE-luciferase reporter, BHK cells); format: cell-based
T3 construct: host or cells: BHK cells (Hollex-1 line expressing hCTR(a) and CRE-Luc), further transfected with human RAMP3
Outline: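 BHK cells with CRE-luciferase, co-expressing hAMYR3 and transfected with human RAMP3, seeded overnight, then exposed 3 h at 37 °C to compound. Buffer: phenol red-free DMEM, 10 mM HEPES, 1% ovalbumin, with 0% or 1% (w/v) HSA. Luminescence read after 30 min with steadylite Plus.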

T3 sequence (P30988 25-474): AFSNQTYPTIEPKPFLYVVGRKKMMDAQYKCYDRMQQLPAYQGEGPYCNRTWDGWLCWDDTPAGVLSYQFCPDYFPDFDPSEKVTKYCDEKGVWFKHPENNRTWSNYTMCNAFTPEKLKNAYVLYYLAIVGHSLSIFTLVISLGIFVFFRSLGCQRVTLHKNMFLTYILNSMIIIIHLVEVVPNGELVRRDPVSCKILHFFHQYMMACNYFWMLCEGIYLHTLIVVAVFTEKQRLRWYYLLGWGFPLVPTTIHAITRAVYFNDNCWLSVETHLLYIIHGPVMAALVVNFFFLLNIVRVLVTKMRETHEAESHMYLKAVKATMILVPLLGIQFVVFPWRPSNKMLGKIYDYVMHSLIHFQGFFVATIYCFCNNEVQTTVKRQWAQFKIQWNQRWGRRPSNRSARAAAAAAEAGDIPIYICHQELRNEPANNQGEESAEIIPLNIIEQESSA
T3 sequence (O60896 24-148): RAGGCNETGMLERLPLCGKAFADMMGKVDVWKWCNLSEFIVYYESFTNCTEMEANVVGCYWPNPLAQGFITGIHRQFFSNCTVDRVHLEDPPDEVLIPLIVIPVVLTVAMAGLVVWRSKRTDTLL
T1 sequence (P43220 24-463): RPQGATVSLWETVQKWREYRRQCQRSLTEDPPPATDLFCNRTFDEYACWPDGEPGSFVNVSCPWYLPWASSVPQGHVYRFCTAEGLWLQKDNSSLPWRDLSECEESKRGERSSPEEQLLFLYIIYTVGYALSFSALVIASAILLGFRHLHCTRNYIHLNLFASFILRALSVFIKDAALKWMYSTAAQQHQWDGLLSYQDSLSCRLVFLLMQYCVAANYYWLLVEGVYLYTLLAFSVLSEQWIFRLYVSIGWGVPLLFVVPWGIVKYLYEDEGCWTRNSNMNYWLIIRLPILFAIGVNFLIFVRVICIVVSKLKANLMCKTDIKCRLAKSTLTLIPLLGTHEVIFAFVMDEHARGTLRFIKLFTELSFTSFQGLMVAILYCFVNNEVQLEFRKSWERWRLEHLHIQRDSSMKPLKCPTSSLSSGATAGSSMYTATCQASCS

| Purity loss per week at 37° C. [1] [%] | Terminal half-life t1/2 [2] [h] | EC50 [3] [nM] | EC50 ([4]; hGIPR Potency, 1% HSA, EC50, methods B, in the presence of 1% HSA) [nM] | EC50 ([4]; method B, absence of HSA, read-out: hGIPR Potency, no HSA, EC50) [nM] | EC50 ([5]; hAMYR3 Potency, 1% HSA, EC50, methods B, in the presence of 1% HSA) [nM] | EC50 ([5]; method B, absence of HSA, read-out: hAMYR3 Potency, no HSA, EC50) [nM] | Structure (SMILES) |
| --- | --- | --- | --- | --- | --- | --- | --- |
| 0.5 | 100 | – | – | – | – | – | CC[C@H](C)[C@H](NC(=O)[C@H](CCC(=O)O)NC(=O)[C@H](CCC(=O)O)NC(=O)[C@H](CC(C)C)NC(=O)[C@H](CC(C)C)NC(=O)[C@@H](NC(=O)[C@H](CO)NC(=O)[C@H](Cc1ccc(O)cc1)NC(=O)[C@H](CC(=O)O)NC(=O)[C@H](CO)NC(=O)[C@@H](NC(=O)[C@H](Cc1ccccc1)NC(=O)[C@@H](NC(=O)CNC(=O)[C@H](CCC(=O)O)NC(=O)C(C)(C)NC(=O)[C@@H](N)Cc1ccc(O)cc1)[C@@H](C)O)[C@@H](C)O)[C@@H](C)CC)C(=O)N[C@@H](C)C(=O)N[C@@H](C)C(=O)N[C@@H](CCCNC(=N)N)C(=O)N[C@@H](CCC(=O)O)C(=O)N[C@@H](Cc1ccccc1)C(=O)N[C@H](C(=O)N[C@@H](CCC(=O)O)C(=O)N[C@@H](Cc1c[nH]c2ccccc12)C(=O)N[C@@H](CC(C)C)C(=O)N[C@@H](CC(C)C)C(=O)N[C@@H](C)C(=O)NCC(=O)NCC(=O)N1CCC[C@H]1C(=O)N[C@@H](CO)C(=O)N[C@@H](CO)C(=O)NCC(=O)N[C@@H](C)C(=O)NCC(=O)N[C@@H](CCC(N)=O)C(=O)N[C@@H](C)C(=O)N1CCC[C@H]1C(=O)NCC(=O)N[C@@H](CCC(N)=O)C(=O)N[C@@H](C)C(=O)N1CCC[C@H]1C(=O)N[C@@H](CC(C)C)C(=O)N[C@@H](C)C(=O)N[C@@H](CO)C(=O)N[C@@H](Cc1c[nH]cn1)C(=O)N[C@@H](CC(C)C)C(=O)N[C@@H](CO)C(=O)N[C@H](C(=O)N[C@@H](C)C(=O)N[C@@H](CCC(N)=O)C(=O)N[C@H](C(=O)N[C@@H](CCC(N)=O)C(=O)N[C@@H](CCCNC(=N)N)C(=O)N[C@@H](CC(C)C)C(=O)N[C@@H](CO)C(=O)N[C@@H](C)C(=O)N[C@@H](CCC(=O)O)C(=O)N[C@@H](CC(C)C)C(=O)N[C@@H](Cc1c[nH]cn1)C(=O)N[C@@H](CCCCNC(=O)COCCOCCNC(=O)COCCOCCNC(=O)CC[C@H](NC(=O)CCCCCCCCCCCCCCCCCCC(=O)O)C(=O)O)C(=O)N[C@@H](CC(C)C)C(=O)N[C@@H](C)C(=O)N[C@H](C(=O)N[C@@H](CC(C)C)C(=O)N1CCC[C@H]1C(=O)N[C@@H](CCCNC(=N)N)C(=O)N[C@H](C(=O)N[C@@H](CCC(=O)O)C(=O)N[C@H](C(=O)NCC(=O)N[C@@H](CO)C(=O)NCC(=O)N[C@@H](CO)C(=O)N1CCC[C@H]1C(N)=O)[C@@H](C)O)[C@@H](C)O)[C@@H](C)O)[C@@H](C)O)[C@@H](C)O)[C@@H](C)CC [Compound 125] |
| 1.3 | – | 0.744 | 0.0714 | 0.002 | 0.108 | 0.0062 | CC[C@H](C)[C@H](NC(=O)[C@H](CCC(=O)O)NC(=O)[C@H](CCC(=O)O)NC(=O)[C@H](CC(C)C)NC(=O)[C@H](CC(C)C)NC(=O)[C@H](CCCCNC(=O)COCCOCCNC(=O)COCCOCCNC(=O)CC[C@H](NC(=O)CCCCCCCCCCCCCCCCCCC(=O)O)C(=O)O)NC(=O)[C@H](CO)NC(=O)[C@H](Cc1ccc(O)cc1)NC(=O)[C@H](CC(=O)O)NC(=O)[C@H](CO)NC(=O)[C@@H](NC(=O)[C@H](Cc1ccccc1)NC(=O)[C@@H](NC(=O)CNC(=O)[C@H](CCC(=O)O)NC(=O)C(C)(C)NC(=O)[C@@H](N)Cc1ccc(O)cc1)[C@@H](C)O)[C@@H](C)O)C(=O)N[C@@H](C)C(=O)N[C@@H](C)C(=O)N[C@@H](CCCNC(=N)N)C(=O)N[C@@H](CCC(=O)O)C(=O)N[C@@H](Cc1ccccc1)C(=O)N[C@H](C(=O)N[C@@H](CCC(=O)O)C(=O)N[C@@H](Cc1c[nH]c2ccccc12)C(=O)N[C@@H](CC(C)C)C(=O)N[C@@H](CC(C)C)C(=O)N[C@@H](C)C(=O)NCC(=O)NCC(=O)N1CCC[C@H]1C(=O)N[C@@H](CO)C(=O)N[C@@H](CO)C(=O)NCC(=O)N[C@@H](C)C(=O)NCC(=O)N[C@@H](C)C(=O)N[C@@H](CO)C(=O)N[C@@H](CCC(=O)O)C(=O)N[C@@H](CC(C)C)C(=O)N[C@@H](CO)C(=O)N[C@H](C(=O)N[C@@H](C)C(=O)N[C@@H](CCC(N)=O)C(=O)N[C@@H](CC(C)C)C(=O)NCC(=O)N[C@@H](CCCNC(=N)N)C(=O)N[C@@H](CC(C)C)C(=O)N[C@@H](CO)C(=O)N[C@@H](C)C(=O)N[C@@H](CCC(=O)O)C(=O)N[C@@H](CC(C)C)C(=O)N[C@@H](Cc1c[nH]cn1)C(=O)N[C@@H](CCC(N)=O)C(=O)N[C@@H](CC(C)C)C(=O)N[C@@H](C)C(=O)N[C@H](C(=O)N[C@@H](CC(C)C)C(=O)N1CCC[C@H]1C(=O)N[C@@H](CCCNC(=N)N)C(=O)N[C@H](C(=O)N[C@@H](CCC(=O)O)C(=O)N[C@H](C(=O)NCC(=O)N[C@@H](CO)C(=O)NCC(=O)N[C@@H](CO)C(=O)N1CCC[C@H]1C(N)=O)[C@@H](C)O)[C@@H](C)O)[C@@H](C)O)[C@@H](C)O)[C@@H](C)CC [Compound 183] |
